According to patent US7803768B2, “Method for treatment of hyperglycemia in a subject in need thereof” (Kyoto University, priority 2005, dated 2010):
Where no end group is shown, it is not given here. [ ]: non-standard residue; d: D form. The star is where a group is joined. Octanoyl = CCCCCCCC(=O)*

Tests used:
neonatal rat STZ model = experiment: neonatal rat STZ model, human ghrelin or GHRP-2 (Examples 3 and 4); format: in vivo, Sprague Dawley rats; details: 9th week after birth; for Body weights: FIG. 7A / FIG. 8A; for Pancreas weights: FIG. 7B / FIG. 8B; for Insulin Content (Gut Side): calculated from gut-side pancreas sample; for Insulin Content (Gut Side) / Insulin Content (Spleen Side): mean ± SE; for Insulin Content (Spleen Side): calculated from spleen-side pancreas sample
Source text: Sprague Dawley female pregnant rats, purchased from Charles River, were allowed free access to tap water and a standard pellet rat diet (CRF-1, Oriental Yeast Co., Ltd.), and natural deliveries were allowed. Three experimental groups as follows were set: control group wherein rats received single peritoneal injection of citrate buffer immediately after birth; STZ-vehicle group wherein rats received single peritoneal injection of STZ, and then vehicle (5% mannitol solution) was subcutaneously administered twice a day from the 2nd day after birth for 7 days; and STZ-human ghrelin group wherein rats received single peritoneal injection of STZ, and then human ghrelin (sequence No. 1, 100 μg/kg body weight) was subcutaneously injected twice a day from a 2nd day after birth for 7 days.
STZ was prepared and administered as in the example 1. Each male neonatal rat was checked for urinary sugar on the 2nd day with Pretest 3aII (Wako Pure Chemical Industries, Ltd.). Only rats that were glycosuric (3+ value with Pretest 3aII) at day 2 after birth were included in the following studies. The rats were weaned in the evening on the 20th day after birth. Blood samples were collected from tail vein while awake at 8th week (57th day) after birth to measure plasma glucose and insulin concentrations. In addition, after measuring body weight at 9th week (62nd or 63rd day) after birth, blood samples were collected from abdominal aorta under anesthesia with intraperitoneal injection of pentobarbital sodium (50 mg/kg). Whole pancreases were removed and weighed. Thereafter, the pancreases were divided into two pieces and kept for insulin content measurement. Blood samples were centrifuged immediately at 4° C. to prepare plasma samples, and kept at −80° C. until measurement of glucose and insulin concentrations. Glucose concentration was measured using a Glucose CII-test Wako (Wako Pure Chemical Industries, Ltd.), while insulin concentration was measured using a highly sensitive insulin measurement kit (Morinaga Institute of Biological Science, Inc.).
Experimental materials, experimental methods and evaluation methods were similar to those in the example 2. As a test substance, 100 μg/kg of GHRP-2 was subcutaneously administered twice a day from a 2nd day after birth for 7 days (an STZ-GHRP-2 group).

n0-STZ model = experiment: n0-STZ model: neonatal streptozotocin-treated rats given rat ghrelin (Example 1); format: in vivo, Sprague Dawley rats; details: for Plasma Insulin: 100 μg/kg s.c. twice a day, 2nd to 8th day after birth, mean ± SE
Source text: Female or male Sprague Dawley rats, purchased from Charles River were, were allowed free access to tap water and a standard pellet rat diet (352 kcal/100 g, CE-2, CLEA). Females were caged with a male for one night, and pregnancy was detected by abdominal palpation 14 days later. Natural birth occurred 22 days after mating. We examined three experimental groups as follows: a control group (Sprague Dawley rats) wherein newborn rats received a single intraperitoneal injection of citrate buffer; an n0-STZ group wherein rats received a single intraperitoneal injection of streptozotocin (STZ); and an n0-STZ/ghrelin group wherein rats received a single intraperitoneal injection of streptozotocin, and then received rat-derived ghrelin (hereafter reffered to as rat ghrelin, sequence No. 3, 100 μg/kg body weight) by subcutaneous injection twice a day on the 2nd to 8th day after birth for 7 days.
Streptozotocin (Sigma, 100 mg/kg body weight) was dissolved in citrate buffer (0.05 mmol/L, pH4.5) and immediately injected intraperitoneally once into a rat immediately after birth. Pups were left with their mothers. Each neonatal rat was checked for urinary sugar on the 2nd day with Multistix SG (Bayer Medical). Only rats that were glycosuric (3+ value with Multistix SG test) at day 2 after birth were included in the n0-STZ model group. Animals were killed at 21 or 70 days by bleeding under anesthesia with intraperitoneal injection of pentobarbital sodium (50 mg/kg).
After excision, pancreases were removed and weighed. To measure insulin content, pancreases (35-50 mg) were homogenized and centrifuged in 5 ml of acid-ethanol (0.15 M HCl 75% (v/v)-ethanol solution), and the supernatants were kept at −80° C. For immunohistochemistry, additional pancreases were fixed in 4% paraformaldehyde fixative for 24 hours, and embedded in paraffin.
Insulin and pdx-1 were detected immunohistochemically on 3 μm-thick tissue sections using an indirect peroxidase-labeling technique. Each section was incubated with a primary antibody (guinea pig anti-porcine insulin, DACO) or (rabbit anti-mouse/rat IDX-1; CHEMICON) for 1 hour. Staining was performed by incubation with 3,3′-diaminobenzidine tetrahydrochloride (DAB) kit (DakoCytomation). Quantitative evaluations of total β cells area were performed by a computer-assisted image analysis procedure using an Olympus BX 51 microscope connected to a digital camera DP 12 and Mac SCOPE Ver2.6 software (Mitani, Fukui, Japan). β cells area and total pancreatic section area were evaluated for each stained section. A relative volume of β cells was determined by a sterological morphological method, with calculation of the ratio between the areas occupied by immunoreactive cells and those occupied by total pancreatic cells.
Total RNA was extracted from rat pancreases as previously reported (Biochem. Biophys. Res. Commun., 214, pp. 239-246, 1995). To synthesis the first-strand cDNA, the extracted products were used as templates in reactions containing RT (Invitrogen) and the target 3′ primer. An RT-PCR analysis was performed according to a method previously reported (Biochem. Biophys. Res. Commun., 214, pp. 239-246, 1995). The first strand cDNA was used in subsequent PCR analyses. In the PCR analyses, oligonucleotide primers as follows were used for each target cDNA. The identity of the PCR product was confirmed by agarose gel electrophoresis.
Realtime PCR was performed as follows. The cDNA (1 μl) was mixed with 2×PCR Master Mix (Applied Biosystems) (25 μl), sterilized distilled water (23 μl), and sense and antisense primers ([…], 0.5 μl) of insulin and Pdx-1. Forty cycles of PCR amplification were carried out using the thermal cycler system (ABI PRISM 7700, Applied Biosystems, Japan), for 15 seconds at 95° C. followed by 60 seconds at 60° C. The concentration of each mRNA product was quantified using calibration curves expressing the fluorescence intensity against the amount of standardized PCR product. […]

β cells = experiment: β cell replication, phospho-histone H3 / insulin double staining of pancreatic sections (Example 2); format: in vivo, rat; details: for Double positive cells for phospho-histone H3 and insulin: 10-week-old rats, FIG. 6, no significant difference among four groups; for Increase of double positive cells for phospho-histone H3 and insulin: 21-day-old rats, FIG. 5B
Protocol: Pancreatic sections that had not been used for morphological studies were used to examine β cell replication. The sections were subjected to double staining for phospho-histone H3 (Ser10) and insulin. The sections were incubated overnight with 50-fold dilution of anti-phospho-histone H3 (Ser10) antibody (Cell Signaling Technology) at 4° C. Thereafter, the sections were incubated with guinea pig anti-insulin antibody at a room temperature for 1 hour. After washing with PBS for 6 times, the sections were incubated at a room temperature for 30 minutes in a blocking solution with a secondary antibody conjugated with fluorescence (Alexa Fluor 488 and 546, Molecular Probe). After washing with PBS, sections were mounted with mounting medium containing DAPI (Vector Laboratories) and examined with confocal laser scanning microscopy (Leica Microsystems). At least 1,000β cells were counted per section.

[1] = system: high fatty acid diet-fed mice; experiment: high fatty acid diet-fed mice with linoleic acid loading (Example 5); format: in vivo, Crj:CD1(ICR) mice
Source text: Male Crj:CD1(ICR) mice (Charles River Japan) were allowed free access to tap water and a standard pellet mouse diet (CRF-1, Oriental Yeast Co., Ltd.) (with lighting hours from 21 to 9 o'clock). Normal control mice were kept in this condition (normal diet, an ND group). A high fatty acid diet group (High Fat Diet, an HFD group) was allowed to freely take a mixture of 5 g CRF-1 (powder) with 1 g linoleic acid as a high fatty acid diet from the 4th week after birth. As test substances, a vehicle (5% mannitol solution) (an HFD-vehicle group) or 300 μg/kg of human ghrelin (an HFD-ghrelin group) was administered twice a day (once a day in a holiday) for about 7 weeks from the day of the start of high fatty acid diet load. Changes in the body weights and ad lib blood sugar levels after the start of test substance administration were monitored. In addition, mice were fasted overnight on the 50th day from the start of test substance administration, and then linoleic acid (1 mL/kg, intraperitoneal administration) was acutely loaded on a next day to measure plasma glucose and plasma insulin concentrations 1 hour later. The blood sugar value was measured using Antisense II (Horiba, Ltd.), while plasma glucose concentration and insulin concentration were measured using a Glucose CII-test Wako (Wako Pure Chemical Industries, Ltd.) and a Lebis insulin kit (TMB for a mouse) (Shibayagi Co. Ltd.), respectively.

**Q.** For “A[dW]AW[dF]K-NH2 [GHRP-2, reference compound]”, which “Insulin contents in pancreases relative to the STZ-vehicle group” value (neonatal rat STZ model) is on record?
**A.** higher than those of the STZ-vehicle group

**Q.** What about the Body weights (neonatal rat STZ model) of the same substance?
**A.** not significantly different from those of the control group

**Q.** What about the Pancreas weights (neonatal rat STZ model) of the same substance?
**A.** greater than those of the STZ-vehicle group

**Q.** And the “Insulin Content (Gut Side)” value (neonatal rat STZ model)?
**A.** 81.7 ± 4.6 μg/pancreas

**Q.** What about the “Insulin Content (Spleen Side)” value (neonatal rat STZ model) of the same substance?
**A.** 146.8 ± 10.9 μg/pancreas

**Q.** “GSS(n-octanoyl)FLSPEHQKAQQRKESKKPPAKLQPR [rat ghrelin]” was tested. Which “Plasma Insulin” value (n0-STZ model; 10-week-old rats) did it give?
**A.** 0.93 ± 0.49 ng/mL

**Q.** What about the “Plasma Insulin” value (n0-STZ model; 21-day-old rats) of the same substance?
**A.** 0.35 ± 0.17 ng/mL

**Q.** What about the “Insulin mRNA expression levels within the pancreases” value (n0-STZ model; 21st day after birth, FIG. 1A) of the same substance?
**A.** returned to levels similar to those of the control group

**Q.** And the “pdx-1 gene expression levels in pancreas” value (n0-STZ model; 21st day after birth, FIG. 2A)?
**A.** recovered to the levels similar to those in the control group

**Q.** And the “Islet of Langerhans size, insulin immunostaining of pancreases” value (n0-STZ model; 21st day after birth, FIGS. 1B-E)?
**A.** larger than that of the n0-STZ group but smaller than that of the control group

**Q.** What about the “Pdx-1 gene expression in pancreas” value (n0-STZ model; 70th day after birth (adult rats), FIG. 4A) of the same substance?
**A.** returned to the level close to that of the control group

**Q.** And the “Insulin mRNA expression in pancreas” value (n0-STZ model; 70th day after birth (adult stage), FIG. 3B)?
**A.** a level similar to that of the control group

**Q.** What about the “Islet of Langerhans size, insulin immunohistochemical staining” value (n0-STZ model; 70th day after birth, FIGS. 3C-F) of the same substance?
**A.** larger than that of the n0-STZ group but smaller than that of the control group

**Q.** And the “Double positive cells for phospho-histone H3 and insulin” value (β cells; STZ model)?
**A.** tendency for double positive cells for phospho-histone H3 and insulin to increase

**Q.** What about the “Double positive cells for phospho-histone H3 and insulin” value (β cells; control group (no STZ)) of the same substance?
**A.** tended to decrease

**Q.** What about the “Increase of double positive cells for phospho-histone H3 and insulin” value (β cells; ghrelin group as compared to control rats) of the same substance?
**A.** approximately 1.7 fold

**Q.** What about the “Increase of double positive cells for phospho-histone H3 and insulin” value (β cells; n0-STZ/ghrelin group as compared to n0-STZ rats) of the same substance?
**A.** ~15 fold

**Q.** Which results are given for “GSS(n-octanoyl)FLSPEHQRVQQRKESKKPPAKLQPR (GSS(Octanoyl)FLSPEHQRVQQRKESKKPPAKLQPR; listed as Homo Sapiens) [human ghrelin]”?
**A.** Insulin contents in pancreases relative to the STZ-vehicle group (neonatal rat STZ model): about twice as high as those of the STZ-vehicle group; Body weights (neonatal rat STZ model): comparable to those of the control group; Pancreas weights (neonatal rat STZ model): significantly greater than those of the STZ-vehicle group; Insulin Content (Gut Side) (neonatal rat STZ model): 63.0 ± 6.7 μg/pancreas; Insulin Content (Spleen Side) (neonatal rat STZ model): 120.9 ± 14.1 μg/pancreas; ad lib blood sugar levels ([1]; 43rd day of high fatty acid diet and 300 μg/kg s.c. administration, FIG. 9B): tended to decrease as compared to the HFD-vehicle group; Plasma glucose concentrations after linoleic acid loading ([1]; 1 hour after 1 mL/kg linoleic acid i.p., FIG. 10B): tended to be low as compared to the HFD-vehicle group; Plasma glucose concentrations before linoleic acid loading ([1]; after 50 days of high fatty acid diet and 300 μg/kg administration, fasted overnight, mean of 8 mice ± standard error): 141 ± 5 mg/dL; Plasma insulin concentrations after linoleic acid loading ([1]; after 50 days, fasted overnight, 1 hour after 1 mL/kg linoleic acid i.p., FIG. 10A): higher than those of the HFD-vehicle group
